Experimental findings from publication PMC8509980 (Chinese Medical Journal, 2021) are described below.

The experiment addresses T1, sineoculis homeobox homolog 1 (SIX1) (Homo sapiens, UniProt Q15475).
T1 sequence (Q15475 1-284): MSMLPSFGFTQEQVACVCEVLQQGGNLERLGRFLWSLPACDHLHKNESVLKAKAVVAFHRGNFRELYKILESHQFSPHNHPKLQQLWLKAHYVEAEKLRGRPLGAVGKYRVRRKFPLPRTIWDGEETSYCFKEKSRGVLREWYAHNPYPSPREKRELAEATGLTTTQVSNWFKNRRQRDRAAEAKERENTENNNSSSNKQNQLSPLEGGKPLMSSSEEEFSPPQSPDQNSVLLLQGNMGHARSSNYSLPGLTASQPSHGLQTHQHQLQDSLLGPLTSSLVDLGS
T1 sequence (Q99502 1-592 partner): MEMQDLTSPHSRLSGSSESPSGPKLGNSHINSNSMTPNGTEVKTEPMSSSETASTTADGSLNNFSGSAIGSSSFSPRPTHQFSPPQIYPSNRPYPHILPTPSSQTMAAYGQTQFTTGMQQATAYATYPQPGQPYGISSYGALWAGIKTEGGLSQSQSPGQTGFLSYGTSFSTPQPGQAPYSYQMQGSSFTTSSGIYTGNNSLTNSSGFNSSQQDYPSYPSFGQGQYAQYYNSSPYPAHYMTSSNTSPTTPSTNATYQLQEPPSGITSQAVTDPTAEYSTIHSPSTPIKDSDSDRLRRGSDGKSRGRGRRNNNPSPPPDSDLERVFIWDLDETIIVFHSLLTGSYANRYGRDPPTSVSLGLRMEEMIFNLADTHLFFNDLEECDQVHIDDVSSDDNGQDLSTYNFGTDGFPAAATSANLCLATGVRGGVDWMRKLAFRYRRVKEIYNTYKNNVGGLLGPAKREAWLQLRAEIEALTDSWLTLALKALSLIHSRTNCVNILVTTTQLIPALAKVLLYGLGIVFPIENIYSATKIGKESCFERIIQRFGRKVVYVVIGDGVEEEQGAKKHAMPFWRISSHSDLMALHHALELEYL
Put plainly: AlphaScreen disruption of purified GST-SIX1/His-EYA1 interaction. Format: binding. (In general: Alpha assays give light when donor and acceptor beads are brought close together.)

A word on the IC50: it is the concentration that inhibits the measured activity by half. The low end stands for higher potency, the high end for lower potency. Turning to NSC0191, the IC50 is 12.6 ± 1.15 µM.

Substance NSC0933 showed an IC50 of 83.4 ± 7.24 µM.
